Assay results as given in US6960687B2, “Derivatives and pharmaceutical compositions of n-hydroxyalkyl tetramethylcyclopropane-carboxamide, having anti-epiletic, neurological, and CNS activity, and method for their preparation” (priority 2002, dated 2005).

Legend:
mice [1] = assay: subcutaneous metrazole test (sc Met); assay type: in vivo
Description: This value is slightly lower (more efficacious) than that found for VPA in mice. The results are indicative of the compound 1 having an efficacy against absence seizures and ability to raise seizure threshold.
(§1) Compound V of the above diagram (2-hydroxyethyl-tetramethylcyclopropane-carboxamide) was screened for its ability to protect against induced convulsions in MES and scMet test. […] At the sc Met (subcutaneous metrazole) test, 3 out of 4 mice were protected following ip administration of 50 mg/kg.

mice [2] = assay: 6 Hz psychomotor seizure model; settings: for PI (6 Hz 44 mA): protective index at 44 mA stimulus; for ED50: Mus musculus, 0.25 h
mice [3] = assay: neurotoxicity, rotorod ataxia test; assay type: in vivo
Description: (§2) Neurotoxicity of the claimed agents was assessed in mice (ip. administration) in the rotorod ataxia test. Compound 1 was neurotoxic in some of the mice tested at doses of above 146 mg/kg ip. The PI for compound 1 at the highest stimulus intensity (44 mA) in the 6 Hz test in mice was 1.1 compared to 0.91 for VPA.

mice [4] = assay: maximal electroshock seizure test (MES); assay type: in vivo
Description: The ED50 (mice ip) in the MES model is between 150 and 300 mg/kg in mice (Table 1). This value is slightly lower than that of VPA in mice. The results are indicative of the compound 1 having an efficacy against generalized seizures and complex partial seizures that evolve into generalized motor seizures.
as §1

mouse = settings: literature statement; cited from earlier work
[5] = tested on: animal models of epilepsy; settings: literature statement; cited from earlier work
[6] = neurotoxicity, rotorod ataxia test; assay type: in vivo, mice; settings: mouse, in vivo, ip
Description: as §2

mice [7] = settings: cited from earlier work
[8] = ip, 15 min following administration

CC1(C)C(C(=O)NCO)C1(C)C [Compound 1, N-hydroxymethyl-tetramethylcyclopropane-carboxamide]
sc Met ED50 (mice [1]; [8]): 120 mg/kg | times more active compared to VPA, 6 Hz 32 mA test (mice [2]; mice, 32 mA): 1.38 times | times more active compared to VPA, 6 Hz 44 mA test (mice [2]; mice, 44 mA): 2.31 times | 6 Hz 22 mA ED50 (mice [2]; mice, ip, 15 min, stimulation intensity 22 mA): 75 mg/kg | 6 Hz 32 mA ED50 (mice [2]; mice, ip, 15 min, stimulation intensity 32 mA): 91 mg/kg | 6 Hz 44 mA ED50 (mice [2]; mice, ip, 15 min, stimulation intensity 44 mA): 134 mg/kg | PI (6 Hz 44 mA) (mice [2]; mice, ip): 1.1 | Neurotoxicity TD50 (mice [3]; mice, ip, 15 min following administration): 146 mg/kg | doses neurotoxic in some of the mice tested (mice [3]; mice, ip, rotorod ataxia test): above 146 mg/kg | MES ED50 (mice [4]; [8]): 150 to 300 mg/kg

CC1(C)C(C(=O)NCCO)C1(C)C [Compound V, 2-hydroxyethyl-tetramethylcyclopropane-carboxamide]
mice protected at the sc Met test (mice [1]; ip administration of 50 mg/kg): 3 out of 4 | behavioral impairment (neurotoxicity) (mice [3]; dose of 50 mg/kg ip): did not show any behavioral impairment | mice protected at the MES test (mice [4]; dose of 30 mg/kg ip): 1 out of 4

CNC(=O)C1C(C)(C)C1(C)C [N-Methyl-tetramethylcyclopropane carboxamide]
teratogenicity (mouse): not teratogenic | potency relative to VPA in animal models of epilepsy [5]: approximately 10 times

CC1(C)C(C(N)=O)C1(C)C [Tetramethylcyclopropane carboxamide, Tetramethyl-cyclopropane-carboxamide]
teratogenicity (mouse): not teratogenic

CCCC(CCC)C(=O)O [VPA, valproic acid, reference compound]
ED50 (mice [2]; ip, read-out: 6 Hz 22 mA ED50): 42 mg/kg | ED50 (mice [2]; ip, read-out: 6 Hz 44 mA ED50): 310 mg/kg | PI (6 Hz 44 mA) (mice [2]; mice, ip): 0.91 | TD50 at 15 min [6]: 283 mg/kg | ED50 (mice [4]; Mus musculus, 0.25 h, ip, 15 min following administration): 271 mg/kg

CCC(C)C(CC)C(N)=O (stereo not drawn) [Valnoctamide (VCD), Valnoctamide]
teratogenicity (mouse): non-teratogenic

CC[C@@H](C(N)=O)N1CCCC1=O [levetiracetam]
ED50 in 6 Hz model at 44 mA stimulus (existing antiepileptic drugs) (mice [7]): 189 mg/kg

CCCC(C(N)=O)C(C)C (stereo not drawn) [propyl-isoproylacetamide (PID), propyl-isoproylacetamide]
teratogenicity (mouse): non-teratogenic
